Literature values in US20030021750A1, “Novel functional agents for magnetic resonance imaging” (priority 2001, published 2003).

Conditions: thermodynamic stability of the Gd3+ chelate; background statement

stability constant (K) / formation constant, logK | Compound
22.4 | O=C([O-])CN(CCN(CC(=O)[O-])CC(=O)[O-])CCN(CC(=O)[O-])CC(=O)[O-].[Gd+3] [Gd(DTPA)^2−]
28.5 | O=C([O-])CN1CCN(CC(=O)[O-])CCN(CC(=O)[O-])CCN(CC(=O)[O-])CC1.[Gd+3] [Gd-DOTA]
